According to US4594340A, “25,26-dehydro-1α,24R-dihydroxycholecalciferol and 25,26-dehydro-1α,24S-dihydroxycholecalciferol and the epimeric mixture” (Hoffmann-La Roche Inc., priority 1984, dated 1986):

Assays:
HL-60 cells [1] = assay: Differentiation of HL-60 cells by nitroblue tetrazolium (NBT) reduction; format: cell-based, human (patient)
Protocol: (§1) Cultures of HL-60 cells were established in the absence (control) or presence of various concentrations of the test compound. […] Proliferation was assessed by directly enumerating the increased number of tumor cells resulting from incubation. Viability was determined by dye exclusion technique to learn whether any of the compounds were lethal to cultured HL-60 cells. Cellular differentiation was evaluated by determining the number of cells which had acquired the enzymes necessary to support a respiratory burst and the functional ability to phagocytose (bind/internalize) particulate material from their environment; both activities being characteristic of mature macrophages and granulocytes,
(§2) Experimental compounds were dissolved in sufficient ethanol to yield stock solutions of 1×10^-2 molar. Reduced lighting was employed when working with compounds and stock solutions were stored in the dark at -20° in an argon atmosphere. Compounds were diluted with tissue culture medium and added to flasks containing HL-60 cells to achieve the final concentrations described in each experiment.
(§3) The promyelocytic (HL-60) tumor cell line was derived from a patient with acute promyelocytic leukemia. HL-60 cells were maintained in liquid culture by serial weekly passage in tissue culture medium. In any experiment, three replicate flasks were incubated without compound (control) or in the presence of varying concentrations of compound. […]
Quantitation of differentiated cells was done by the biochemical method of nitroblue tetrazolium (NBT) reduction. Sufficient cells were pooled from replicate cultures, centrifuged at 220×g, washed once with serum-free tissue culture medium, and resuspended to 1×10^6 cells per ml in Ca^++ --Mg^++ -deficient phosphate buffered saline (prepared by supplementing Ca^++ --Mg^++ -free phosphate buffered saline (PBS) to 10% v/v with heat-inactivated fetal bovine serum). Nitroblue tetrazolium was dissolved at 1 mg per ml in Ca^++ --Mg^++ -deficient PBS with gentle heating and mixing. Tetradecanoyl phorbol acetate (TPA) was dissolved at 1 mg per ml in ethanol and stored at -20° C. Just prior to use, a working solution of TPA was prepared by diluting the stock concentration 100-fold with Ca^++ --Mg^++ -deficient PBS. The test was done in 12×75 mm tubes by adding 0.5 ml Ca^++ --Mg^++ -deficient PBS, 1.0 ml of HL-60 cells, 0.5 ml of NBT solution, and 0.02 ml of the working TPA solution. After mixing, the tubes were incubated in a 37° water bath for 25 minutes then transferred to ice. Undifferentiated and differentiated cells present in any sample were determined microscopically by surveying 200-400 cells per sample or by cytofluorograph by surveying greater than 30,000 cells. Cells without pigmented granules (clear cells) were judged to be undifferentiated while those containing greater than 3 blue-black formazan granules were scored as differentiated. […] Results are expressed as the percentage of differentiated cells present in any sample as calculated according to the formula: [formula]

HL-60 cells [2] = assay: Differentiation of HL-60 cells by phagocytosis; format: cell-based, human (patient)
Protocol: as §1
Tissure culture medium used in these experiments was RPM1-1640 supplemented prior to use to 10% v/v with fetal bovine serum (heat inactivated at 56° for 30 minutes), to 130 units per ml with penicillin and 130 μg per ml with streptomycin, and to an additional 1.6 millimolar with L-glutamine.
as §2, §3
Quantitation of differentiated HL-60 cells on a functional basis was done by enumerating the number of cells in any sample which had acquired the ability to phagocytose (bind/internalize) particulate material from their environment, a characteristic of mature macrophages and granulocytes. Sufficient cells were pooled from replicate cultures, centrifuged at 200×g, washed once with serum-free tissue culture medium, and resuspended to 1×10^6 cells per ml in serum-free tissue culture medium. To a 1.0 ml sample in 12×75 mm tubes was added 0.1 ml of a 1:10 dilution from stock of fluorescent microspheres obtained as a gift from Dr. William Dreyer at the California Institute of Technology. Latex beads, yeast cells or red blood cells may also be used in place of fluorescent microsphere in this step. Cells and particle were mixed, incubated for 15 minutes in a 37° water bath, collected in a transfer pipet, and overlayed onto a 5 ml cushion of fetal bovine serum in a 15 ml conical culture tube. After centrifugation at 150×g for 8 minutes, the excess particulate (upper layer) was discarded as was the remainder of the serum cushion leaving only a cell pellet and cell-associated particulate. The resultant pellets were resuspended in 1.0 ml of tissue culture medium containing 10% fetal bovine serum, transferred to a hemacytometer, and evaluated microscopically using both ultraviolet and visible light sources. Undifferentiated and differentiated cells present in any sample were determined microscopically by surveying 200-400 cells per sample. Non-fluorescent cells, identified only by visible light, were judged to be undifferentiated. Generally, differentiated cells were intensely fluorescent clearly indicating extensive phagocytosis of particulate material. Results are expressed as the percentage of differentiated cells present in any sample as calculated according to the formula: [formula]

[3] = Antirachitogenic increase in tibia ash in chicks on vitamin D-deficient diet; format: in vivo, chick (White Leghorn cockerels)
Protocol: **Oneday-old White Leghorn cockerels were placed on a vitamin Ddeficient
diet which contained 1% calcium and 0.7% phosphorus and were housed under
ultravioletfree lighting (General Electric F40G0 gold fluorescent lights)
The test compound was dissolved in propylene glycol and administered
orally in a volume of 0.2 ml/day for 21 consecutive days. Controls were
treated with vehicle alone. Chicks were autopsied on the day after the […]

- EC50 (HL-60 cells [1]; Homo sapiens, 96 h, HL-60 cells, NBT test, read-out: HL-60 Test Differentiation NBT Test ED50): 30 nM
- potential for hypercalcemia ([3]; than for 1α,25-dihydroxycholecalciferol, as indicated by increase in tibia ash weight in chicks): much less
Structure (SMILES): C=C(C)[C@H](O)CC[C@@H](C)[C@H]1CC[C@H]2/C(=C/C=C3/C[C@@H](O)C[C@H](O)C3=C)CCC[C@]12C [25,26-dehydro-1α,24R-dihydroxycholecalciferol]
- diff. cells / total (NBT reduction) (HL-60 cells [1]; 45 × 10^-9 molar, day 3): 14932/30509
- % diff. (NBT reduction) (HL-60 cells [1]; 45 × 10^-9 molar, day 4): 60%
- diff. cells / total (NBT reduction) (HL-60 cells [1]; 45 × 10^-9 molar, day 4): 20003/33311
- % diff. (NBT reduction) (HL-60 cells [1]; 45 × 10^-9 molar, day 6): 63%
- diff. cells / total (NBT reduction) (HL-60 cells [1]; 45 × 10^-9 molar, day 6): 22787/36263
- % diff. (NBT reduction) (HL-60 cells [1]; 90 × 10^-9 molar, day 3): 62%
- diff. cells / total (NBT reduction) (HL-60 cells [1]; 90 × 10^-9 molar, day 3): 29458/47866
- % diff. (NBT reduction) (HL-60 cells [1]; 90 × 10^-9 molar, day 4): 73%
- diff. cells / total (NBT reduction) (HL-60 cells [1]; 90 × 10^-9 molar, day 4): 30230/41142
- % diff. (NBT reduction) (HL-60 cells [1]; 90 × 10^-9 molar, day 6): 79%
- diff. cells / total (NBT reduction) (HL-60 cells [1]; 90 × 10^-9 molar, day 6): 35708/45388
- induction of cellular differentiation (HL-60 cells [1]; compared with 1α,25-dihydroxycholecalciferol): induced cellular differentiation in a dose dependent fashion
- potency relative to 1α,25-dihydroxycholecalciferol (cellular differentiation) (HL-60 cells [1]; of that of 1α,25-dihydroxycholecalciferol): 40%
- % diff. (Phagocytosis) (HL-60 cells [2]; 5 × 10^-9 molar, day 3): 7%
- diff. cells / total (Phagocytosis) (HL-60 cells [2]; 5 × 10^-9 molar, day 3): 24/329
- % diff. (Phagocytosis) (HL-60 cells [2]; 5 × 10^-9 molar, day 4): 10%
- diff. cells / total (Phagocytosis) (HL-60 cells [2]; 5 × 10^-9 molar, day 4): 22/223
- % diff. (Phagocytosis) (HL-60 cells [2]; 5 × 10^-9 molar, day 6): 16%
- diff. cells / total (Phagocytosis) (HL-60 cells [2]; 5 × 10^-9 molar, day 6): 45/290
- % diff. (Phagocytosis) (HL-60 cells [2]; 15 × 10^-9 molar, day 3): 24%
- diff. cells / total (Phagocytosis) (HL-60 cells [2]; 15 × 10^-9 molar, day 3): 76/324
- % diff. (Phagocytosis) (HL-60 cells [2]; 15 × 10^-9 molar, day 4): 29%
- diff. cells / total (Phagocytosis) (HL-60 cells [2]; 15 × 10^-9 molar, day 4): 96/332
- % diff. (Phagocytosis) (HL-60 cells [2]; 15 × 10^-9 molar, day 6): 25%
- diff. cells / total (Phagocytosis) (HL-60 cells [2]; 15 × 10^-9 molar, day 6): 83/333
- % diff. (Phagocytosis) (HL-60 cells [2]; 45 × 10^-9 molar, day 3): 53%
- diff. cells / total (Phagocytosis) (HL-60 cells [2]; 45 × 10^-9 molar, day 3): 174/329
- % diff. (Phagocytosis) (HL-60 cells [2]; 45 × 10^-9 molar, day 4): 70%
- diff. cells / total (Phagocytosis) (HL-60 cells [2]; 45 × 10^-9 molar, day 4): 206/296
- % diff. (Phagocytosis) (HL-60 cells [2]; 45 × 10^-9 molar, day 6): 79%
- diff. cells / total (Phagocytosis) (HL-60 cells [2]; 45 × 10^-9 molar, day 6): 176/223
- % diff. (Phagocytosis) (HL-60 cells [2]; 90 × 10^-9 molar, day 3): 69%
- diff. cells / total (Phagocytosis) (HL-60 cells [2]; 90 × 10^-9 molar, day 3): 181/261
- % diff. (Phagocytosis) (HL-60 cells [2]; 90 × 10^-9 molar, day 4): 86%
- diff. cells / total (Phagocytosis) (HL-60 cells [2]; 90 × 10^-9 molar, day 4): 219/255
- % diff. (Phagocytosis) (HL-60 cells [2]; 90 × 10^-9 molar, day 6): 96%
- diff. cells / total (Phagocytosis) (HL-60 cells [2]; 90 × 10^-9 molar, day 6): 200/218
- cells capable of phagocytosis (HL-60 cells [2]; compared with control cultures): dose-related increase in the proportion of cells capable of phagocytosis
- Antirachitogenic Increase in Tibia Ash in Chicks ([3]; 300 ng, orally, 21 consecutive days): 20%
